Results as given in patent US7906620B2, “Tumor associated antigen, peptides thereof, and use of same as anti-tumor vaccines” (Yeda Research and Development Co. Ltd., priority 2002, dated 2011).

Legend:
[1] = tested on: peptide loaded on labeled RMA-S/HHD; assay: Immunogenicity of peptides in HHD mice: vaccination with peptide-loaded RMA-S/HHD/B7.1, cytolytic assay on peptide-loaded targets; format: in vivo; conditions: for Score: immunogenic score: ratio of specific lysis, specific peptide vs tyrosinase peptide loaded on RMA-S/HHD, average of two experiments, positive above 125%; for antigenic / immunogenic in HHD mice: mouse, in vivo
Method: FIG. 4 is a graph of the results of in vitro cytolytic assays. Seven peptides are immunogenic. Peptides were loaded on RMA-S/HHD/B7.1, washed and irradiated. HHD mice were immunized three times as described in the materials and methods section in Example 1. In vitro cytolytic assays were performed on the relevant peptide as target and on an irrelevant peptide. The score was deduced from the ratio of the specific lysis that were obtained. The positive peptides (above 125%) are marked by arrows. Peptides 1-6, 3-5 and 3-7 are derived from “Human 1-8D gene”.
(§1) Vaccination. HHD mice were immunized i.p. 3 times at 7-day intervals with 2×10^6 irradiated (5000 rad) tumor cells, or irradiated peptide-loaded RMA-S/HHD/B7.1 transfectants. Spleens were removed on day 10 after the last immunization, and splenocytes were restimulated in vitro, either with irradiated tumor cells or with one third of the lymphocytes pre-pulsed with 100 μM synthetic peptides in opti-MEM (Life Technologies) for 2 hr at 37° C., 5% CO2. Restimulated lymphocytes were cultured in RPMI-HEPES medium containing 10% FCS, 2 mM glutamine, combined antibiotics, 1 mM sodium pyruvate, 25 mM HEPES, 5×10^−5M PME and 1% NEAA for 5 days. Viable cells (effectors) were separated by Lympholyte-M (Cedarlane, Hornby, Canada) gradient, resuspended and admixed at different ratios with 5,000 ^35S-methionine-labeled target cells. Cytolytic assays were carried out as described previously in Carmon et al., 2000. Extracts of tumor peptides or normal colon peptides were prepared from a pool of 6 post-surgical colon carcinoma specimens as described before Carmon et al., 2000.
The antigenic peptides were tested for their specific immunogenicity in HHD mice. HHD mice were vaccinated with RMA-S/HHD/B7.1 cells loaded with each of the peptides (listed in Table 3), their spleens were removed, and resensitized in vitro with synthetic peptides for four days. On the fifth day, a cytolytic assay was performed on two targets, either the peptide itself loaded on labeled RMA-S/HHD or the tyrosinase peptide as a negative control. The ratio of specific lysis between specific and tyrosinase peptides was defined as “immunogenic score”. This experiment was repeated twice and the average score of each of the antigenic peptides is specified (Table 3 and FIG. 4). The horizontal line in FIG. 4 represents the limit of 95% significance as defined by assuming normal distribution of scores.

HLA-A2.1 = target: T1, HLA-A2.1 (Homo sapiens, UniProt P04439, D140Y/D185E/D98H/E176V/E277Q/G131W/G231S/I119V/I121R/I166T/I218V/L300P/L318F/N151K/N90K/P208A/P217A/Q86G/Q94H/R138H/R169H/T345S); assay: T2 stabilization assay (peptide binding to HLA-A2.1); conditions: acid stripped T2 cells, peptide and recombinant β2m, BB7.2 mAb, FACS
T1 construct: endogenous in cells; host or cells: T2 cells (TAP-2-deficient lymphoblastoid line)
Method: T2 cells were acid stripped and incubated with the indicated peptide and recombinant β2m or with β2m alone as a negative control. FIG. 5D is the tyrosinase peptide as the positive control. Cells were stained with BB7.2 mAb and analyzed by FACS. The number of positive cells above control level is indicated for each of the peptides.
(§2) Intrigued by this finding, the laboratory of the present inventors focused on the 1-8D peptides. Peptide binding to HLA-A2.1 was verified by a T2 stabilization assay (Firat et al., 1999). […] 1-8D peptides were next tested for induction of anti-HCT/HHD CTL responses by vaccinating HHD mice with the 1-8D peptides (Carmon et al., 2000).

HCT/HHD cells [2] = assay: Anti-HCT/HHD CTL response after vaccination of HHD mice with 1-8D peptides; format: in vivo; conditions: for lysis of HCT/HHD by peptide-induced CTL: HHD mice immunized with peptide loaded on RMA-S/HHD/B7.1; for ranking as vaccine against HCT/HHD (in vitro cytolytic capacity): mouse, in vivo
Method: FIG. 6 is a graph showing that the 1-8D peptides can mount anti-HCT/HHD CTL responses. HHD mice were immunized with HCT/HHD/B7.1 and with peptide loaded on RMA-S/HHD/B7.1. In vitro cytolytic assays were performed using HCT/HHD cells as targets. The specific lysis at E:T in 50:1 ratio of a representative experiment out of three is shown.
as §1, §2

[3] = tested on: EL4/HHD/1-8D transfected cells; assay: Lysis of 1-8D transfectants by CTL from peptide-immunized HHD mice; format: in vivo; conditions: high background lysis of EL4/HHD
Method: FIGS. 8A-8C are graphs that show 1-8D peptides 1-6 (FIG. 8A), 3-5 (FIG. 8B), and 3-7 (FIG. 8C) mount CTL responses that lyse 1-8D transfectants. Each peptide was loaded on RMA-S/HHD/B7.1 and used to immunize HHD mice. In vitro cytolytic assays were performed using EL4/HHD cells (open circles) and EL4/HHD/1-8D transfected cells (dark circles) as a target. The specific lysis of a representative experiment out of three is shown.
The 1-8D peptides are presented by HHD molecules on HCT/HHD cells. […] The plasmid was stably transfected into EL4 cells together with an HHD plasmid. HHD mice were immunized with the 1-8D peptides and a cytolytic assay was performed. The susceptibility of EL4/HHD/1-8D transfectant and the parental EL4/HHD cells to be lysed by anti-1-8D lymphocytes were compared. FIG. 8A-8C summarizes the results of these cytolytic experiments.

HCT/HHD cells [4] = assay: Adoptive transfer of anti-1-8D peptide lymphocytes to nude mice bearing HCT/HHD footpad tumors; format: in vivo, CD1-nude mice; conditions: for day from which retardation in tumor growth is significant (P<0.05): 10^7 restimulated lymphocytes i.v. three days post challenge, IL-2, one tailed student t-test
Method: FIG. 9 is a graph showing that nude mice were challenged in the foot pad with HCT/HHD cells. Lymphocyte from vaccinated HHD mice were transferred together with IL-2 to the tumor bearing mice and the growth of the tumor was monitored twice a week.
Adoptive transfer. CD1-nude mice were challenged in the footpad with 3×10^6 HCT/HHD cells. Three days later, 10^7 viable re-stimulated effector cells were injected i.v. to the tail vein. One thousand units of IL-2, was injected i.p. twice a day for 7 consecutive days post transfer. Tumor growth was monitored by measuring the diameter of the footpad with calipers. Mice were sacrificed when one of the tumor diameters reached 10 mm.
The anti-tumor efficacy of anti-1-8D peptide CTL was evaluated next. A transfer model, in which HCT/HHD cells were inoculated to the footpads of nude mice, was established. Three days post footpad challenge, in vitro restimulated HHD lymphocytes were transferred i.v. and the tumor growth was monitored.

peptide pulsed T2 cells = assay: In vitro priming of human CTL precursors with 1-8D peptides; format: cell-based; conditions: for activating peripheral CTLp to lyse target cells in a peptide specific manner: PBMC of two normal donors, after 4 consecutive stimulations
Method: FIG. 10 are graphs showing PMBC from 4 donors checked for existence of CTL precursors. Left hand panel-peptide 1-6 stimulated CTLp. Middle Panel-peptide 3-5 stimulated CTLp. Right hand panel-peptide 3-7 stimulated CTLp. […] PBMC were supplemented with IL-7, and two days later IL-2 was added and renewed every three days. The rest of the stimulations were done every 7 days over peptide pulsed monocytes. Seven days after the third stimulation, lymphocytes were harvested and a cytolytic assay was performed using peptide pulsed (closed squares, closed circles, open triangles, X signs) or non-pulsed T2 cells (open circles) as targets. Closed squares represent CTLp from donor A, closed circles represent CTLp from donor B, open triangles represent CTLp from donor C, Xs represent CTLp from donor D, and open circles represent non-pulsed T2 cells.
In vitro priming of human CTL. Leukopheresis products of four healthy donors were obtained from Barzilai Medical Center (Ashkelon, Israel) according to Declaration of Helsinki Principles. PMBC were isolated by centrifugation on Ficoll-Plaque Plus gradients (Amersham, Sweden). The procedure was carried out according to Thurner et al., with minor modifications. Briefly, in vitro priming was done over autologous DC that were prepared from monocytes by IL-4 and GM-CSF treatment and matured with a IL-1β, IL-6, TNF-α and PGE2 cocktail. DC were pulsed with the synthetic peptides and PBMC were supplemented with IL-7. Two days later IL-2 was added and renewed every three days. The rest of the stimulations were done every 7 days over peptide pulsed monocytes. […]

EL4/HHD cells = assay: Immunogenicity of PSGR-derived peptides in HHD mice (peptide-loaded dendritic cells); conditions: mouse, in vivo
Method: FIGS. 15A and 15B are graphs showing immunogenicty of PSGR-derived peptides in HHD mice. The mice were immunized i.v. three time with 1×10^6 syngeneic dendritic cells (DCs) loaded with either PSGR-1 or PSGR-6 peptides. Spleens were removed on day 10 after the last immunization, and splenocytes were re-stimulated in vitro by 100 μM PSGR-1 (FIG. 15A) or PSGR-6 (FIG. 15B) derived peptides in OPTIMEM for 2 h at 37° C., 5% CO2, followed by restimulation of lymphocytes for 4 more days in RPMI-HEPES. CTL assays were performed on day 5 with individual PSGR-1 or PSGR-6 derived peptides loaded on EL4/HHD cells as targets. Non-relevant PAP derived peptide-loaded EL4/HHD cells were used as negative controls. 100:1, 50:1, 25:1, 12.5:1 effector-to-target ratios are shown.
The immunogenicity of the peptides, namely their potential to induce T cell responses, was subsequently examined in an in vivo model. A strain of β2 microglobulin (β2m) HLA-A2.1 Monochain Transgenic, H-2D^b−/−Xβ2m^−/− double knockout mice (HHD mice) was used. Upon vaccination of these mice, a repertoire of human HLA-A2.1 restricted CTLs is produced. The lysis patterns of each of the individual peptides loaded on target cells were first evaluated following immunization with syngeneic dendritic cells pulsed with pools of 2-4 synthetic peptides derived from each examined protein.

[5] = tested on: peptide loaded on labeled RMA-S/HHD; conditions: F. A. Lemonnier, unpublished; cited from earlier work
[6] = healthy donor PBMC, peptide pulsed vs non-pulsed T2 targets

| Sequence | Score [1] | antigenic / immunogenic in HHD mice [1] | binding to HLA-A2.1 (stabilization of HLA-A2 on T2 cells) (HLA-A2.1) | lysis of HCT/HHD by peptide-induced CTL (HCT/HHD cells [2]) | ranking as vaccine against HCT/HHD (in vitro cytolytic capacity) (HCT/HHD cells [2]) | lysis of 1-8D transfectant compared to EL4/HHD cells [3] | day from which retardation in tumor growth is significant (P<0.05) (HCT/HHD cells [4]) | activating peripheral CTLp to lyse target cells in a peptide specific manner (peptide pulsed T2 cells) | CTL activity of stimulated CTLp, donor B (peptide pulsed T2 cells; [6]) | CTL activity of stimulated CTLp, donor C (peptide pulsed T2 cells; [6]) | CTL activity of stimulated CTLp, donor A (peptide pulsed T2 cells; [6]) | effect on in vivo growth of HCT/HHD (HCT/HHD cells [4]; adoptive transfer, nude mice) | CTL activity of stimulated CTLp, donor D (peptide pulsed T2 cells; [6]) | level of immunogenicity in HHD mice (EL4/HHD cells) | immunogenicity in the HHD model [5] |
| --- | --- | --- | --- | --- | --- | --- | --- | --- | --- | --- | --- | --- | --- | --- | --- |
| LILGIFMTI (listed as Homo sapiens) [Peptide 3-5, Human 1-8D gene from interferon inducible gene 110-118] | 176.7 | antigenic and immunogenic | stabilize HLA-A2 on T2 cells | lyse the human colon carcinoma line HCT-15-HHD | most effective | roughly equal | 11 days | incompetent | low yet specific CTL activity | not and low yet specific CTL activity | – | – | – | – | – |
| EMKEEQEV (listed as Homo sapiens) [Peptide 1-6, Human 1-8D gene from interferon inducible gene 20-28] | 181.3 | antigenic and immunogenic | stabilize HLA-A2 on T2 cells | lyse the human colon carcinoma line HCT-15-HHD | intermediate | better lysed | 13 days | incompetent | low yet specific CTL activity | not | not | – | – | – | – |
| KCLNIWALI (listed as Homo sapiens) [Peptide 3-7, Human 1-8D and 1-8U genes from interferon inducible genes 103-111] | 487.5 | antigenic and immunogenic | stabilize HLA-A2 on T2 cells | lyse the human colon carcinoma line HCT-15-HHD | least effective | better lysed | 13 days | highly efficient | high CTL activity | low activity | high CTL activity | least effective | low activity | – | – |
| GLEKAHFWV (listed as Homo sapiens) [PSGR-6, PSGR start position 18] | – | – | – | – | – | – | – | – | – | – | – | – | – | low | – |
| TLNAWVKVV [HIV derived peptide] | – | – | – | – | – | – | – | – | – | – | – | – | – | – | weak immunogen |
